Where two headings read alike, the source gives them in different places.
Key:
PDE10A [1] = target: T1, PDE10A (Homo sapiens (Human), UniProt Q9Y233); experiment: biochemical
Experimental: (§1) Inhibition of Recombinant PDE10A (Expressed in Baculovirus/SF21 Cells)
(§2) PDE activity was determined in a one step procedure in microtiter plates. The reaction mixture of 100 μl contained 50 mM Tris-HCl/5 mM MgCl2 buffer (pH=7.4, Sigma, Deisenhofen, Germany; Merck, Darmstadt, Germany) 0.1 μM [3H]-cAMP (PerkinElmer, Shelton, USA) and the enzyme. Non-specific enzyme activity was determined without the enzyme.
(§3) The reaction was initiated by addition of the substrate solution and was carried out at 37° C. for 30 minutes. Enzymatic activity then was stopped by addition of 25 μl Ysi-SPA-beads (PerkinElmer, Shelton, USA). One h later the mixture was measured in a liquid scintillation counter for microtiter plates (Microbeta Trilux). The Biomek 2000 (Beckman) was used routinely for pipetting of the incubation mixture. […] For determination of IC50 values the Hill-plot, 2-parameter-model, was used.

PDE10A [2] = target: T1, PDE10A; conditions: read-out: Inhibition of PDE10A, IC50
Experimental: as §1, §2, §3

T1 sequence (Q9Y233 other isoform, or with tags, fused parts or gaps): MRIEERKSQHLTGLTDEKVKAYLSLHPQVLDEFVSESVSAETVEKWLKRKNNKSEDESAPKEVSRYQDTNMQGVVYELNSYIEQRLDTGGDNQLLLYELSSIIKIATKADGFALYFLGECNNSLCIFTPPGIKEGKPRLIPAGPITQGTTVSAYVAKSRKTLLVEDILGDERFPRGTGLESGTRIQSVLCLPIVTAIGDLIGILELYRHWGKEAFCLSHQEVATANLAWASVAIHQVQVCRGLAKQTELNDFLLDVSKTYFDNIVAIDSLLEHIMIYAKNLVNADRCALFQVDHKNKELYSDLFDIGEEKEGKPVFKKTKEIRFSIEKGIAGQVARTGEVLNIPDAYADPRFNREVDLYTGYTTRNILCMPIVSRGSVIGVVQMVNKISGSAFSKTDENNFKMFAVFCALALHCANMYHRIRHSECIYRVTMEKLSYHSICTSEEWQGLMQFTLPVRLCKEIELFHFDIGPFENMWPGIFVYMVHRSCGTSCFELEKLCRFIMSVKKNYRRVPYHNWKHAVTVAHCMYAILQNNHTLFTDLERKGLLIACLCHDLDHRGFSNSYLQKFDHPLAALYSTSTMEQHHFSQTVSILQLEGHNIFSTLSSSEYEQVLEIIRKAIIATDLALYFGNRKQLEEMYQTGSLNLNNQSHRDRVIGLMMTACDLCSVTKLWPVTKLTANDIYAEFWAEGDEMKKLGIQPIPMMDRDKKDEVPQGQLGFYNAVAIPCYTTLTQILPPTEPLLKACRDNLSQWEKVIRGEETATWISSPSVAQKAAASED

Compound | IC50 (PDE10A [1]) [nM] | IC50 (PDE10A [2]) [nM]
Cc1nc2cc(Cl)ccc2n2c(-c3cc(OCCCC(F)(F)F)ccc3Cl)nnc12 [Example 27, 7-Chloro-1-[2-chloro-5-(4,4,4-trifluoro-butoxy)-phenyl]-4-methyl-[1,2,4]triazolo[4,3-a]quinoxaline] | > 1000 | –
COCCOc1ccc(F)c(-c2nnc3cnc4cc(Cl)ccc4n23)c1 [Example 29, 7-Chloro-1-[2-fluoro-5-(2-methoxy-ethoxy)-phenyl]-[1,2,4]triazolo[4,3-a]quinoxaline] | > 1000 | –
CSc1ncccc1-c1nnc2c(C)nc3cc(C(F)(F)F)ccc3n12 [Example 69, 4-Methyl-1-(2-methylsulfanyl-pyridin-3-yl)-7-trifluoromethyl-[1,2,4]triazolo[4,3-a]quinoxaline] | > 1000 | –
Cc1nc2cc(C(F)(F)F)ccc2n2c(-c3c(F)cccc3F)nnc12 [Example 70, 1-(2,6-Difluoro-phenyl)-4-methyl-7-trifluoromethyl-[1,2,4]triazolo[4,3-a]quinoxaline] | 77 | –
COc1ccc2c(c1)nc(C)c1nnc(-c3c(F)cccc3F)n12 [Example 75, 1-(2,6-Difluoro-phenyl)-7-methoxy-4-methyl-[1,2,4]triazolo[4,3-a]quinoxaline] | 334 | –
Cc1nc2cc(OCc3ccc(F)cc3)ccc2n2c(-c3ccccc3Cl)nnc12 [Example 77, 1-(2-Chloro-phenyl)-7-(4-fluoro-benzyloxy)-4-methyl-[1,2,4]triazolo[4,3-a]quinoxaline] | 118 | –
Cc1nc2cc(OCc3ccc4ccccc4n3)ccc2n2c(-c3ccccc3Cl)nnc12 [Example 79, 1-(2-Chloro-phenyl)-4-methyl-7-(quinolin-2-ylmethoxy)-[1,2,4]triazolo[4,3-a]quinoxaline] | – | 1
Cc1nc2ccc(OCc3ccc4ccccc4n3)cc2n2c(-c3ccccc3Cl)nnc12 [Example 80, 1-(2-Chloro-phenyl)-4-methyl-8-(quinolin-2-ylmethoxy)-[1,2,4]triazolo[4,3-a]quinoxaline] | – | 10
CC(=O)OCCCCOc1ccc(Cl)c(-c2nnc3c(C)nc4ccccc4n23)c1 [Example 89, Acetic acid 4-[4-chloro-3-(4-methyl-[1,2,4]triazolo[4,3-a]quinoxalin-1-yl)-phenoxy]-butyl ester] | – | > 1000
Cc1nc2ccccc2n2c(-c3cc(OCCN4CCOCC4)ccc3Cl)nnc12 [Example 91, 1-[2-Chloro-5-(2-morpholin-4-yl-ethoxy)-phenyl]-4-methyl-[1,2,4]triazolo[4,3-a]quinoxaline] | – | > 1000
Cc1nc2ccccc2n2c(-c3cc(OCC(=O)c4ccccn4)ccc3Cl)nnc12 [Example 93, 2-[4-Chloro-3-(4-methyl-[1,2,4]triazolo[4,3-a]quinoxalin-1-yl)-phenoxy]-1-pyridin-2-yl-ethanone] | – | > 1000
Cc1nc2ccccc2n2c(-c3cc(OCCN4CCN(C)CC4)ccc3Cl)nnc12 [Example 94, 1-{2-Chloro-5-[2-(4-methyl-piperazin-1-yl)-ethoxy]-phenyl}-4-methyl-[1,2,4]triazolo[4,3-a]quinoxaline] | > 1000 | –
Cc1nc2ccccc2n2c(-c3cc(OCCN4CCCCC4)ccc3Cl)nnc12 [Example 95, 1-[2-Chloro-5-(2-piperidin-1-yl-ethoxy)-phenyl]-4-methyl-[1,2,4]triazolo[4,3-a]quinoxaline] | – | > 1000
Cc1nc2ccccc2n2c(-c3cc(OCCN4CCCC4)ccc3Cl)nnc12 [Example 96, 1-[2-Chloro-5-(2-pyrrolidin-1-yl-ethoxy)-phenyl]-4-methyl-[1,2,4]triazolo[4,3-a]quinoxaline] | – | > 1000
Cc1nc2ccccc2n2c(-c3cc(OCCC4CCOCC4)ccc3Cl)nnc12 [Example 97, 1-{2-Chloro-5-[2-(tetrahydro-pyran-4-yl)-ethoxy]-phenyl}-4-methyl-[1,2,4]triazolo[4,3-a]quinoxaline] | – | > 1000
Cc1nc2ccccc2n2c(-c3cc(OCC(C)O)ccc3Cl)nnc12 (centres unmarked) [Example 100, 1-[4-Chloro-3-(4-methyl-[1,2,4]triazolo[4,3-a]quinoxalin-1-yl)-phenoxy]-propan-2-ol] | – | 784
Cc1nc2ccc(Cl)cc2n2c(-c3cc(OCCCO)ccc3Cl)nnc12 [Example 101, 3-[4-Chloro-3-(8-chloro-4-methyl-[1,2,4]triazolo[4,3-a]quinoxalin-1-yl)-phenoxy]-propan-1-ol] | – | 319
Cc1nc2ccc(Cl)cc2n2c(-c3cc(OCC(C)O)ccc3Cl)nnc12 (centres unmarked) [Example 102, 1-[4-Chloro-3-(8-chloro-4-methyl-[1,2,4]triazolo[4,3-a]quinoxalin-1-yl)-phenoxy]-propan-2-ol] | – | 611
Cc1nc2ccccc2n2c(-c3cc(OC[C@H](C)O)ccc3Cl)nnc12 [Example 103, (S) 1-[4-Chloro-3-(4-methyl-[1,2,4]triazolo[4,3-a]quinoxalin-1-yl)-phenoxy]-propan-2-ol] | > 1000 | –
Cc1nc2ccccc2n2c(-c3cc(OC[C@@H](C)O)ccc3Cl)nnc12 [Example 104, (R) 1-[4-Chloro-3-(4-methyl-[1,2,4]triazolo[4,3-a]quinoxalin-1-yl)-phenoxy]-propan-2-ol] | > 1000 | –
Cc1nc2ccccc2n2c(-c3cc(OCC(O)c4ccccn4)ccc3Cl)nnc12 (centres unmarked) [Example 105, 2-[4-Chloro-3-(4-methyl-[1,2,4]triazolo[4,3-a]quinoxalin-1-yl)-phenoxy]-1-pyridin-2-yl-ethanol] | > 1000 | –
Cc1nc2ccccc2n2c(-c3cc(OCC(F)c4ccccn4)ccc3Cl)nnc12 (centres unmarked) [Example 106, 1-[2-Chloro-5-(2-fluoro-2-pyridin-2-yl-ethoxy)-phenyl]-4-methyl-[1,2,4]triazolo[4,3-a]quinoxaline] | 963 | –
Cc1nc2ccc(Cl)cc2n2c(-c3cc(O)ccc3Cl)nnc12 [Example 107, 4-Chloro-3-(8-chloro-4-methyl-[1,2,4]triazolo[4,3-a]quinoxalin-1-yl)-phenol] | – | 13
COCCOc1ccc(F)c(-c2nnc3cnc4ccccc4n23)c1 [Example 109, 1-[2-Fluoro-5-(2-methoxy-ethoxy)-phenyl]-[1,2,4]triazolo[4,3-a]quinoxaline] | – | > 1000
Cc1ccc2nc(C)c3nnc(-c4cc(OCCCC(F)(F)F)ccc4Cl)n3c2c1 [Example 110, 1-[2-Chloro-5-(4,4,4,-trifluoro-butoxy)-phenyl]-4,8-dimethyl-[1,2,4]triazolo[4,3-a]quinoxaline] | – | > 1000
Cc1nc2cc(C#N)ccc2n2c(-c3cc(OCCCC(F)(F)F)ccc3Cl)nnc12 [Example 111, 7-Cyano-1-[2-chloro-5-(4,4,4,-trifluoro-butoxy)-phenyl]-4-methyl-[1,2,4]triazolo[4,3-a]quinoxaline] | – | > 1000

From patent US9540379B2 (priority 2011, dated 2017)
